Measured values published in patent US20100316585A1, “Use of Magnesium Stearate Dihydrate for Lubrication of Solid Industrial or Consumer Products” (priority 2008, published 2010).

Key:
[1] = Percent water (free and bound) of neat MgSt hydrates; type: physicochemical; settings: neat MgSt hydrate
Method: Thermal gravimetric analysis (Q50 TGA, TA Instruments) was carried out from 25 to 190° C. at a heating rate of 5° C./min. Data acquisition and analysis were conducted using TA Instruments software. FIG. 4 presents the TGA of MgSt-M and MgSt-D.

[2] = Particle-size distribution by laser diffraction; type: physicochemical; settings: neat MgSt hydrate
Method: Particle-size distributions were determined using a laser diffraction system (series 2600, Malvern Instruments Ltd., Malvern, UK) equipped with a 63-mm lens (size range of 1.2-118 μm) and a stirred cell.

magnesium stearate [MgSt-M, reference compound]
Dihydrate water [1]: 0%
Free water [1]: 0.6%
Monohydrate water [1]: 2.8%
percent bound moisture [1]: 2.8%
Particle size (nominal mean particle size) [2]: 10.6 μm

magnesium stearate dihydrate [MgSt-D]
Dihydrate water [1]: 5.6%
Monohydrate water [1]: 0%
percent bound moisture [1]: 5.6%
Free water ([1]; dihydrate): little or no free water
Free water ([1]; listed as MqSt-D, dihydrate): 0%
Particle size (nominal mean particle size) [2]: 14.3 μm
